Legend:
death induced by 48/80 = test: "In vivo" antihistaminic activity: protection from death induced by compound 48/80 in the rat; conditions: for ED50: ip, 4 h, i.p., rat, 48/80 0.5 mg/kg i.v. after 60 minutes, survival four hours after injection, read-out: ED-50 (dose capable of protecting 50% of the animals from death induced by 48/80)
Protocol: The antihistaminic activity was studied by determining the protection in the face of the mortality used by the product 48/80 in the rat. This test was performed in accordance with the technique described by C. J. E. Niemegeers et cols. (Arch. int. Pharmacodyn., 234, 164-176 (1978). The products according to the present invention are administered intra-peritonially to rats. After 60 minutes the compound 48/80 is administered (0.5 mg/kg, i.v.).
The protective activity is defined as the survival of the rats four hours after the i.v. injection of 48/80.
The activity of the products was studied at several doses in order to determine the dose capable of protecting 50% of the animals (ED-50).
"In vivo" antihistaminic activity Protection from death induced by 48/80

[1] = Sedative effect: potentiation of the sleep time induced by pentobarbital; conditions: for Potentiation of the sleep time induced by pentobarbital (in words): oral, example 5 up to 160 mg/kg, difenhidramine at 20 mg/kg; for Potentiation sleep time: sodium pentobarbital 35 mg/kg s.c. one hour later
Protocol: The study of the potentiation of the sleep time due to the pentobarbital was performed following the method described by L. E. Allen and cols. […] The products studied were administered orally. […] The sleep time was compared with a group of control animals, treated only with sodium pentobarbital.

[2] = Sedative action: Irwin Test (passivity, ataxia); conditions: for Atax. (ataxia, alterations of coordination in locomotion), evaluated between 0 and 3 / Pas. (passivity, sedation, prostation), evaluation between 0 and 3 / Effect: toxic: rat, i.p.; for Atax. (ataxia, alterations of coordination in locomotion), evaluated between 0 and 3 / Pas. (passivity, sedation, prostation), evaluation between 0 and 3: 1, 2 and 3 hours after treatment
Protocol: Pas.: Passivity, sedation, prostation. Quantitative evaluation between 0 and 3. They were performed 1, 2 and 3 hours after the treatment.
Atax.: Ataxia, the alterations of coordination in locomotion were evaluated. They were evaluated between 0 and 3. They were performed 1, 2 and 3 hours after the treatment.
Sedative action: 1) Irwin Test

Row | Structure (SMILES) | ED50 (death induced by 48/80) [mg/kg] | Atax. (ataxia, alterations of coordination in locomotion), evaluated between 0 and 3 ([2]; 40 mg/kg) | Pas. (passivity, sedation, prostation), evaluation between 0 and 3 ([2]; 40 mg/kg) | Effect: toxic ([2]; 80 mg/kg) | Atax. (ataxia, alterations of coordination in locomotion), evaluated between 0 and 3 ([2]; 80 mg/kg) | Pas. (passivity, sedation, prostation), evaluation between 0 and 3 ([2]; 80 mg/kg) | also measured
1 | CN(C)CCOC(c1ccccc1)c1ccccc1 [Difenhidramine, reference compound] | 5.4 | 0.9 | 0 | – | – | – | Potentiation of the sleep time induced by pentobarbital (in words) [1]: potentiates significantly the sleep time at the dose of 20 mg/kg
2 | Brc1cnn(CCCCN2CCN(C(c3ccccc3)c3ccccc3)CC2)c1 [Example 1, 4-Bromo-1-[4-(4-diphenylmethyl-1-piperazinyl)butyl]pyrazole] | 3.2 | 1.4 | 0.8 | Toxic | – | – | Atax. (ataxia, alterations of coordination in locomotion), evaluated between 0 and 3 ([2]; 20 mg/kg): 1.2; Pas. (passivity, sedation, prostation), evaluation between 0 and 3 ([2]; 20 mg/kg): 0.8
3 | Clc1cnn(CCCCN2CCN(C(c3ccccc3)c3ccccc3)CC2)c1 [Example 2, 4-Chloro-1-[4-(-4-diphenylmethyl-1-piperazinyl)butyl]pyrazole] | 3 | 1.5 | 0.2 | Tox. | 0.4 | 0 | –
4 | Brc1cnn(CCCN2CCN(C(c3ccccc3)c3ccccc3)CC2)c1 [Example 3, 4-Bromo-1-[3-(4-diphenylmethyl-1-piperazinyl)propyl]pyrazole] | 10 | – | – | – | 0.7 | 0 | –
5 | O=C(O)c1cnn(CCCCN2CCN(C(c3ccccc3)c3ccccc3)CC2)c1 [Example 4, 1-[4-(4-Diphenylmethyl-1-piperazinyl)butyl]-4-carboxy pyrazole] | 0.62 | – | – | – | 1 | 0.9 | Atax. (ataxia, alterations of coordination in locomotion), evaluated between 0 and 3 ([2]; 160 mg/kg): 1.6; Pas. (passivity, sedation, prostation), evaluation between 0 and 3 ([2]; 160 mg/kg): 1.2
6 | Cc1cnn(CCCCN2CCN(C(c3ccccc3)c3ccccc3)CC2)c1 [Example 5, 1-4-[4-(-Diphenylmethyl-1-piperazinyl)butyl]-4-methyl pyrazole] | 0.62 | – | – | – | 0.5 | 0.7 | antihistaminic activity (in words) (death induced by 48/80; compared with difenhidramine): one of the most powerful of the products; Potentiation sleep time ([1]; 40 mg/kg p.o., N.S. (not significant)): 15%; Potentiation sleep time ([1]; 80 mg/kg p.o., N.S. (not significant)): 21%; Potentiation sleep time ([1]; 160 mg/kg p.o., * significant vs control (p < 0.05)): 33%; Potentiation of the sleep time induced by pentobarbital (in words) [1]: does not potentiate the sleep time induced by the pentobarbital except at the dose of 160 mg/kg; sedative action / side effects on the central nervous system (in words) ([2]; in words): less sedative action
7 | c1ccc(C(c2ccccc2)N2CCN(CCCCn3ccnc3)CC2)cc1 [Example 6, 1-[4-(4-Diphenylmethyl-1-piperazinyl)butyl]imidazole] | 2.5 | – | – | – | 0.3 | 1.3 | –
8 | c1ccc(C(c2ccccc2)N2CCN(CCCCn3cncn3)CC2)cc1 [Example 7, 1-[4-(4-Diphenylmethyl-1-piperazinyl)butyl]-1,2,4,-triazole] | 0.6 | – | – | Toxic | – | – | –
9 | c1ccc(C(c2ccccc2)N2CCN(CCCCn3cccc3)CC2)cc1 [Example 8, 1-[4-(4-Diphenylmethyl-1-piperazinyl)butyl]pyrrole] | 6.7 | – | – | – | – | – | –
